# Source: ChEMBL document CHEMBL3885881, “DrugMatrix”
# Organism: Rattus norvegicus
# Experiment: DrugMatrix - Regimen: Daily Repeat
# Format: toxicity, organism-based, Sprague-Dawley
# Set-up: regimen Daily Repeat, gender Male, age 6-8 weeks
# Details: in vivo, po, route oral GAVAGE, vehicle .5 % CMC; for ABSOLUTE BASOPHIL / ABSOLUTE EOSINOPHIL / ABSOLUTE LYMPHOCYTE / ABSOLUTE MONOCYTE / ABSOLUTE SEGMENTED NEUTROPHIL / BASOPHIL / EOSINOPHIL / ERYTHROCYTE COUNT / HEMATOCRIT / HEMOGLOBIN / LEUKOCYTE COUNT / LYMPHOCYTE / MEAN CORPUSCULAR HEMOGLOBIN / MEAN CORPUSCULAR HEMOGLOBIN CONCENTRATION / MEAN CORPUSCULAR VOLUME / MONOCYTE / NEUTROPHIL / NUCLEATED RED BLOOD CELLS / PLATELET COUNT: tissue Blood; for ALANINE AMINOTRANSFERASE / ALBUMIN / ALKALINE PHOSPHATASE / ASPARTATE AMINOTRANSFERASE / BLOOD UREA NITROGEN / CARBON DIOXIDE / CHLORIDE / CHOLESTEROL / CREATINE PHOSPHOKINASE / CREATININE / GLUCOSE / LACTATE DEHYDROGENASE / LIPASE / PHOSPHORUS / POTASSIUM / SODIUM / TOTAL BILIRUBIN / TOTAL PROTEIN / URIC ACID: tissue Plasma
# [1] = 0 mg/kg, 72 h, dose level Control, time 3 day
# [2] = 0 mg/kg, 120 h, dose level Control, time 5 day
# [3] = 100 mg/kg, 72 h, dose level Low, time 3 day
smiles,measurement,setting,value
NC(=O)CN1CCCC1=O,ABSOLUTE BASOPHIL,[1],0 CELLS/uL
same,ABSOLUTE EOSINOPHIL,[1],0 CELLS/uL
same,ABSOLUTE LYMPHOCYTE,[1],12191.17 CELLS/uL
same,ABSOLUTE MONOCYTE,[1],183.17 CELLS/uL
same,ABSOLUTE SEGMENTED NEUTROPHIL,[1],1192.33 CELLS/uL
same,BASOPHIL,[1],0%
same,EOSINOPHIL,[1],0%
same,ERYTHROCYTE COUNT,[1],5.51 x10E6/uL
same,HEMATOCRIT,[1],35.45%
same,HEMOGLOBIN,[1],13.82 G/DL
same,LEUKOCYTE COUNT,[1],13.57 x10E3/uL
same,LYMPHOCYTE,[1],89.83%
same,MEAN CORPUSCULAR HEMOGLOBIN,[1],25.1 pg
same,MEAN CORPUSCULAR HEMOGLOBIN CONCENTRATION,[1],38.98 G/DL
same,MEAN CORPUSCULAR VOLUME,[1],64.42 fL
same,MONOCYTE,[1],1.33%
same,NEUTROPHIL,[1],8.83%
same,NUCLEATED RED BLOOD CELLS,[1],0 /100WBC
same,PLATELET COUNT,[1],1118.17 x10E3/uL
same,ALANINE AMINOTRANSFERASE,[1],55 u/L
same,ALBUMIN,[1],4.15 G/DL
same,ALKALINE PHOSPHATASE,[1],449.5 u/L
same,ASPARTATE AMINOTRANSFERASE,[1],112.83 u/L
same,BLOOD UREA NITROGEN,[1],17.33 mg/dL
same,CARBON DIOXIDE,[1],29.5 mmol/L
same,CHLORIDE,[1],101 MEQ/L
same,CHOLESTEROL,[1],70 mg/dL
same,CREATINE PHOSPHOKINASE,[1],1325.83 u/L
same,CREATININE,[1],0.18 mg/dL
same,GLUCOSE,[1],171.5 mg/dL
same,LACTATE DEHYDROGENASE,[1],386 u/L
same,LIPASE,[1],10 u/L
same,PHOSPHORUS,[1],11.57 mg/dL
same,POTASSIUM,[1],6.21 MEQ/L
same,SODIUM,[1],141.65 MEQ/L
same,TOTAL BILIRUBIN,[1],0.15 mg/dL
same,TOTAL PROTEIN,[1],5.75 G/DL
same,URIC ACID,[1],1.28 mg/dL
same,ABSOLUTE BASOPHIL,[2],0 CELLS/uL
same,ABSOLUTE EOSINOPHIL,[2],138.17 CELLS/uL
same,ABSOLUTE LYMPHOCYTE,[2],13283.17 CELLS/uL
same,ABSOLUTE MONOCYTE,[2],303.83 CELLS/uL
same,ABSOLUTE SEGMENTED NEUTROPHIL,[2],1308.17 CELLS/uL
same,BASOPHIL,[2],0%
same,EOSINOPHIL,[2],1%
same,ERYTHROCYTE COUNT,[2],5.32 x10E6/uL
same,HEMATOCRIT,[2],33.8%
same,HEMOGLOBIN,[2],13.63 G/DL
same,LEUKOCYTE COUNT,[2],15.03 x10E3/uL
same,LYMPHOCYTE,[2],88.33%
same,MEAN CORPUSCULAR HEMOGLOBIN,[2],25.68 pg
same,MEAN CORPUSCULAR HEMOGLOBIN CONCENTRATION,[2],40.35 G/DL
same,MEAN CORPUSCULAR VOLUME,[2],63.67 fL
same,MONOCYTE,[2],1.83%
same,NEUTROPHIL,[2],8.83%
same,NUCLEATED RED BLOOD CELLS,[2],0 /100WBC
same,PLATELET COUNT,[2],1097.5 x10E3/uL
same,ALANINE AMINOTRANSFERASE,[2],54.5 u/L
same,ALBUMIN,[2],4.27 G/DL
same,ALKALINE PHOSPHATASE,[2],337 u/L
same,ASPARTATE AMINOTRANSFERASE,[2],94.67 u/L
same,BLOOD UREA NITROGEN,[2],17 mg/dL
same,CARBON DIOXIDE,[2],28.33 mmol/L
same,CHLORIDE,[2],101.5 MEQ/L
same,CHOLESTEROL,[2],71.33 mg/dL
same,CREATINE PHOSPHOKINASE,[2],628.17 u/L
same,CREATININE,[2],0.19 mg/dL
same,GLUCOSE,[2],177.83 mg/dL
same,LACTATE DEHYDROGENASE,[2],500.5 u/L
same,LIPASE,[2],9.5 u/L
same,PHOSPHORUS,[2],12.3 mg/dL
same,POTASSIUM,[2],5.63 MEQ/L
same,SODIUM,[2],143.03 MEQ/L
same,TOTAL BILIRUBIN,[2],0.2 mg/dL
same,TOTAL PROTEIN,[2],6.02 G/DL
same,URIC ACID,[2],1.5 mg/dL
same,ABSOLUTE BASOPHIL,[3],0 CELLS/uL
same,ABSOLUTE EOSINOPHIL,[3],0 CELLS/uL
same,ABSOLUTE LYMPHOCYTE,[3],10885.67 CELLS/uL
same,ABSOLUTE MONOCYTE,[3],0 CELLS/uL
same,ABSOLUTE SEGMENTED NEUTROPHIL,[3],981 CELLS/uL
same,BASOPHIL,[3],0%
same,EOSINOPHIL,[3],0%
same,ERYTHROCYTE COUNT,[3],5.15 x10E6/uL
same,HEMATOCRIT,[3],32.9%
same,HEMOGLOBIN,[3],13.47 G/DL
same,LEUKOCYTE COUNT,[3],11.87 x10E3/uL
same,LYMPHOCYTE,[3],92%
same,MEAN CORPUSCULAR HEMOGLOBIN,[3],26.17 pg
same,MEAN CORPUSCULAR HEMOGLOBIN CONCENTRATION,[3],40.97 G/DL
same,MEAN CORPUSCULAR VOLUME,[3],63.87 fL
same,MONOCYTE,[3],0%
same,NEUTROPHIL,[3],8%
same,NUCLEATED RED BLOOD CELLS,[3],0 /100WBC
same,PLATELET COUNT,[3],1222.67 x10E3/uL
same,ALANINE AMINOTRANSFERASE,[3],51.33 u/L
same,ALBUMIN,[3],4.07 G/DL
same,ALKALINE PHOSPHATASE,[3],403 u/L
same,ASPARTATE AMINOTRANSFERASE,[3],87.67 u/L
same,BLOOD UREA NITROGEN,[3],15 mg/dL
same,CARBON DIOXIDE,[3],25 mmol/L
same,CHLORIDE,[3],102.33 MEQ/L
same,CHOLESTEROL,[3],61 mg/dL
same,CREATINE PHOSPHOKINASE,[3],556.33 u/L
same,CREATININE,[3],0.2 mg/dL
same,GLUCOSE,[3],204.67 mg/dL
same,LACTATE DEHYDROGENASE,[3],170.67 u/L
same,LIPASE,[3],10 u/L
same,PHOSPHORUS,[3],13.13 mg/dL
same,POTASSIUM,[3],5.4 MEQ/L
same,SODIUM,[3],143.3 MEQ/L
same,TOTAL BILIRUBIN,[3],0.1 mg/dL
same,TOTAL PROTEIN,[3],5.5 G/DL
same,URIC ACID,[3],1.8 mg/dL
